Data: article PMC12210912, “Pharmacologic properties and inhibitory activity of 6-azasteroids against Mycobacterium leprae in vivo and in vitro” (Microbiology Spectrum, 2025)

Columns and labels:
LXRα = biological target: T1, LXRα (Homo sapiens, UniProt Q13133); assay: LXRα radioligand binding inhibition; conditions: [3H]T0901317 binding, recombinant protein; for % inhibition observed, LXRα: 10 µM; for inhibition at 10 µM: read-out: % inhibition observed, LXRα
T1 construct: Eurofins (assay provider); host or cells: E. coli
T1 sequence (Q13133 1-447): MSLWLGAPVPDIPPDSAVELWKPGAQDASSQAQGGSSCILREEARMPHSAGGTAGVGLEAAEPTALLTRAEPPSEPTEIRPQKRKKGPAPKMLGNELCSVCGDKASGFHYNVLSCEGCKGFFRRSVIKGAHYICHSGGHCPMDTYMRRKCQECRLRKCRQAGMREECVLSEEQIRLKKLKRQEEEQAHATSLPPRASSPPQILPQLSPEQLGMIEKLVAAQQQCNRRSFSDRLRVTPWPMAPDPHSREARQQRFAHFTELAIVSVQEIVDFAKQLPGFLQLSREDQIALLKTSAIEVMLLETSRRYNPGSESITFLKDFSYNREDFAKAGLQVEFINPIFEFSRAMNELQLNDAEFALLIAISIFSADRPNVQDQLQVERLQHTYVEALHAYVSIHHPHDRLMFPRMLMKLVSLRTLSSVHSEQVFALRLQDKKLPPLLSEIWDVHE
Method: Four nuclear receptors: glucocorticoid, androgen, LXRα, and LXRβ were assayed. Inhibition of agonist binding to each of the receptors was carried out following a standard protocol by Eurofins, Inc., USA. Compounds were tested at 10 µM. Compound binding was measured by scintillation counting and was calculated as a % inhibition of the binding of a radioactively labeled ligand specific for each target. Percent inhibition of control specific binding was expressed as
100−[(measured specific binding)/(control specific binding)∗100]
where measured specific binding is the amount of radioactive ligand binding obtained in the presence of test compounds.
(iii) LXRα (human) recombinant protein expressed in E. coli; agonist radioligand 20 nM [^3H] […] (iv) LXRβ (human) recombinant protein expressed in E. coli; agonist radioligand 20 nM [^3H]

[1] = in vivo pharmacokinetics in CD1 male mice; conditions: for bioavailability: male, CD1, mouse, oral, 5 mg/kg, read-out: F (bioavailability); for Cmax / Tmax / half-life: mouse
Method: Experiments were performed by Pharmaron, Inc. The metabolism and pharmacokinetics of the 6-azasteroids were studied in CD1 male mice approximately 8 weeks old and 20–30 g. […] Each group contained three mice. Blood samples were collected in anticoagulant tubes containing potassium ethylenediaminetetraacetic acid.
Four quality control samples (1, 2, 50, and 800 ng/mL) for plasma were prepared independently of those used for the calibration curves. These quality control samples were prepared on the day of analysis in the same way as the calibration standards. An aliquot (33 µL) of each standard, quality control sample, and unknown sample (30 µL of plasma combined with 3 µL of blank solution) was added to 200 µL of acetonitrile containing an internal standard mixture for precipitating protein. […] The supernatant was diluted three times with water. Diluted supernatant (5 µL) was quantitatively analyzed by LC-MS/MS (API 4000 Triple Quad—AB Sciex, Canada; LC-30A HPLC—Shimadzu, Japan). Non-compartmental pharmacokinetic analysis was performed with Phoenix WinNonlin software (ver. 6.1, Certara, US) using composite data.

M. leprae [2] = assay: M. leprae viability in axenic medium by radiorespirometry; type: cell-based, Mycobacterium leprae
M. leprae [3] = assay: Shepard's mouse footpad model: bacilli count and molecular viability; type: in vivo, Mycobacterium leprae; conditions: for M. leprae molecular viability, median (16S rRNA cDNA/DNA, RT-qPCR) / M. leprae molecular viability: Balb/c mice footpad; for M. leprae molecular viability, median (16S rRNA cDNA/DNA, RT-qPCR): 50 mg/kg daily alone, 1 month; for M. leprae molecular viability: 50 mg/kg daily in combination with sub-inhibitory rifampicin 1 mg/kg; for bacillary load in footpad, median: Balb/c mice, 50 mg/kg daily by gavage alone, 1 month (20 doses), vehicle median 8.110 × 10^4
Method: Animal experimentation was conducted under approval by the ILSL ethical committee ([…] 02/19). Balb/c female mice with 8-week-old were inoculated with 5 × 10^3 live M. leprae bacilli, strain Thai-53, in both hind footpads, as previously described for the Shepard's model ([25]). Eight groups were tested in the experiment: (i) M. leprae control group (n = 5) inoculated with M. leprae and no additional treatment; (ii) vehicle control group (n = 4) inoculated with M. leprae and treatment with vehicle of the drugs; (iii) regular rifampicin treatment, 10 mg/Kg dose; […] (v) compound 2 treatment (n = 4), 50 mg/kg dose; […] One month after inoculation, mice from the control group were euthanized and the hind footpad was collected to assess the establishment of the infection by bacillary enumeration. At that time point, vehicle or drug treatment was started for the remaining groups. All compounds were administrated by gavage, rifampicin was administered weekly, and the compounds were administered daily (excluding weekends) for 1 month (20 doses). Mice were euthanized 6 h after administration of the last dose, and blood was collected in heparin-coated tubes by cardiac puncture for blood enzyme evaluation and compound 5 measurement by LC/MS in the plasma. The infected hind footpads from each group of mice were excised, homogenized and bacilli enumerated in a 100 μL aliquot as previously described ([26]). The remaining homogenate was centrifuged at 12,000 × g for 15 min, the supernatant was discarded, and the pellet was suspended in 750 μL of RNA later solution (Thermo Fisher Scientific). The homogenized tissue pellet was incubated at 4°C for 16 h and stored at -80°C until determination of M. leprae viability was performed by RT-qPCR ([27], [28]). […] RNA and DNA extractions were performed as previously described ([10], [27]). RNA samples were treated with the Turbo DNA-free kit (Thermo Fisher Scientific), and 1,000 ng of DNAse-treated RNA was then used to synthesize the cDNA using the GoScript kit (Promega, USA).

[4] = plasma, 5 mg/kg PO vs 1 mg/kg IV

Compound | % inhibition observed, LXRα (LXRα) | inhibition at 10 µM (LXRα) [%] | AUCinf ([1]; 1 mg/kg IV) | Clobs (observed clearance) ([1]; 1 mg/kg IV) | AUCinf ([1]; 5 mg/kg PO, plasma) | time by which most of the compound was cleared from plasma ([1]; PO administration) [h] | bioavailability [1, 4] [%] | Cmax ([1]; 5 mg/kg PO, plasma) [ng/mL] | Tmax ([1]; 5 mg/kg PO, plasma) [min] | half-life ([1]; 5 mg/kg PO, plasma) [min] | Cmax ([1]; plasma, 1 mg/kg IV) [ng/mL] | Tmax ([1]; plasma, 1 mg/kg IV) [min] | effect on M. leprae viability (radiorespirometry) (M. leprae [2]; 40 µM) | effect on M. leprae viability (radiorespirometry) (M. leprae [2]; 100 µM) | M. leprae molecular viability, median (16S rRNA cDNA/DNA, RT-qPCR) (M. leprae [3]) [%] | M. leprae molecular viability (M. leprae [3]) | bacillary load in footpad, median (M. leprae [3]) | F (bioavailability) ([1]; 5 mg/kg PO vs 1 mg/kg IV) [%] | compound remaining in plasma after 6 h ([1]; PO administration) | in vivo t1/2 relative to compound 1 ([1]; longer than compound 1)
CC(C)(C)c1ccc(C(C)(C)C)c(NC(=O)C2CCC3C4CNC5=CC(=O)CC[C@]5(C)C4CC[C@]23C)c1 (stereo partly shown) [Compound 1] | significantly inhibit binding | 53 | 356 ng·h/g | 46.8 (mL/min)/kg | 822.1 ng·h/g | ≤ 4 | 46.2 | 501 | 30 | 60 | 803 | 38.5 | – | – | – | – | – | – | – | –
CCCN1CC2C3CCC(C(=O)Nc4cc(C(C)(C)C)ccc4C(C)(C)C)[C@@]3(C)CCC2[C@@]2(C)CCC(=O)C=C12 (stereo partly shown) [Compound 2] | significantly inhibit binding | 64 | – | – | – | – | – | – | – | – | – | – | did not significantly affect M. leprae viability | drastically reduced M. leprae viability | 0.5442 | a reduction in bacterial viability was also observed | 7.885 × 10^4 | – | – | –
C[C@]12CCC3C(CNC4=CC(=O)CC[C@@]43C)C1CCC2C(=O)NC(c1ccc(F)cc1)c1ccc(F)cc1 (stereo partly shown) [Compound 5] | low binding | 11 | 3,123 h·ng/g | 5.34 (mL/min)/kg | 18,566 h·ng/g | – | 119 | 2210 | 30 | 168 | 838 | 156 | – | without significantly affecting bacterial viability | 4.205 | a reduction in bacterial viability was also observed | 7.890 × 10^4 | 118.9 | more than 50% | approximately 2.5 fold
